According to publication PMC9636434, “Discovery of small molecule agonists of the Relaxin Family Peptide Receptor 2” (Communications Biology, 2022):
Where “and” joins values, the source holds several entries; their conditions need not be identical. Identical values can stand only once. Like-named read-outs stand apart in the source and are kept apart here.

Experiment: Pharmacokinetic study, 3 mg/kg IV, 10 mg/kg PO and 10 mg/kg PO QD*3, plasma, liver and bone
Format: in vivo, mouse
Conditions: for Plasma concentration: individual values (1)-(3)
Description: The concentration of compound in plasma, liver, and long bones was detected using liquid chromatography tandem mass spectrometry (LC-MS/MS). Samples were collected after a single intraperitoneal (IP) administration at 30 mg/kg, a single intravenous (IV) administration at 3 mg/kg, a single oral (PO) administration at 10 mg/kg, and a daily PO administration for 3 consecutive days at 10 mg/kg. The compound was formulated in 75% PEG300 + 25% of 40% aq. HPBCD for IV and PO administration and in 60% Phosal + 40% PEG300 for IP administration. All tissue samples were homogenized in water at a tissue weight to water volume ratio 1:3.
IV administration, one 10 mg/kg PO administration and three 10 mg/kg PO administrations (QD*3). a Plasma, b liver and c bone profiles in female mice. The actual concentration (ng/g) is the detected value (ng/mL) multiplied by 4. Drug vehicle is 25% aq. 40% HP-b-CD - 75% PEG300. 3 mice were used per time point. Results are expressed as the mean ± SEM.

[1] = female, C57BL/6J, mouse, bone (long bones), iv, 3 mg/kg, bone, IV, individual animals, read-out: Bone 6641 IV concentration
[2] = female, C57BL/6J, mouse, bone (long bones), po, 10 mg/kg, bone, PO (QD*3), individual animals, read-out: Bone 6641 PO (QD*3) concentration
[3] = female, C57BL/6J, mouse, bone (long bones), po, 10 mg/kg, bone, PO, individual animals, read-out: Bone 6641 PO concentration
[4] = female, C57BL/6 J, mouse, liver, iv, 3 mg/kg, liver, IV, individual animals, read-out: Liver 6641 IV concentration
[5] = female, C57BL/6J, mouse, liver, iv, 3 mg/kg, liver, IV, individual animals, read-out: Liver 6641 IV concentration

## O=C1Nc2ccc(-c3cc(C(F)(F)F)cc(C(F)(F)F)c3)cc2C(=O)N2CCN(C(=O)COc3ccc(OC(F)(F)F)cc3I)C[C@@H]12 [compound 6641]
10 mg/kg PO daily for 3 consecutive days
  accumulation: no accumulation
C57BL/6J, mouse, in vivo, female mice, depending on the route of administration (3 mg/kg IV, 10 mg/kg PO)
  half-life: 4 to 6.5 h
C57BL/6J, mouse, plasma, 10 mg/kg PO, female mice
  bioavailability: 25 to 31%
IV administration, 3 mg/kg
  maximum concentration in bone tissue: 1072 ng/g
IV, Time 0.083 h
  Plasma concentration: 2772 ng/mL and 2884 ng/mL
IV, Time 0.25 h
  Plasma concentration: 1472 ng/mL and 1152 ng/mL
IV, Time 0.5 h
  Plasma concentration: 786 ng/mL and 964 ng/mL
IV, Time 1 h
  Plasma concentration: 583 ng/mL and 464 ng/mL
IV, Time 3 h
  Plasma concentration: 259 ng/mL and 205 ng/mL
IV, Time 7 h
  Plasma concentration: 84.8 ng/mL and 68.4 ng/mL
IV, Time 24 h
  Plasma concentration: 4.08 ng/mL and 5.43 ng/mL
IV, Time 48 h, N/A: Below detection level
  Plasma concentration: 0.868 ng/mL
PO (QD*3), Time 0.083 h
  Plasma concentration: 7.56 ng/mL and 5.2 ng/mL
PO (QD*3), Time 0.25 h
  Plasma concentration: 57.1 ng/mL and 50.6 ng/mL
PO (QD*3), Time 0.5 h
  Plasma concentration: 185 ng/mL and 245 ng/mL and 104 ng/mL
PO (QD*3), Time 1 h
  Plasma concentration: 484 ng/mL and 346 ng/mL
PO (QD*3), Time 3 h
  Plasma concentration: 344 ng/mL
PO (QD*3), Time 7 h
  Plasma concentration: 125 ng/mL and 179 ng/mL
PO (QD*3), Time 24 h
  Plasma concentration: 3.9 ng/mL and 5.49 ng/mL
PO (QD*3), Time 48 h, N/A: Below detection level
  Plasma concentration: 1 ng/mL
PO administration, 10 mg/kg
  maximum concentration in bone tissue: 170 to 300 ng/g
PO, Time 0.25 h
  Plasma concentration: 32.7 ng/mL and 59.5 ng/mL
PO, Time 0.5 h
  Plasma concentration: 159 ng/mL and 69 ng/mL and 120 ng/mL
PO, Time 1 h
  Plasma concentration: 406 ng/mL and 323 ng/mL
PO, Time 3 h
  Plasma concentration: 247 ng/mL and 204 ng/mL
PO, Time 7 h
  Plasma concentration: 141 ng/mL and 122 ng/mL
PO, Time 24 h
  Plasma concentration: 8.08 ng/mL and 4.6 ng/mL
female, C57BL/6J, mouse, bone (long bones), 10 mg/kg, bone, PO, individual animals, read-out: Bone 6641 PO concentration
  concentration at 0.5 h: 20.3 ng/g
[1]
  concentration at 0.083 h: 1180 ng/g
  concentration at 0.25 h: 1100 ng/g
  concentration at 0.5 h: 711 ng/g
  concentration at 1 h: 632 ng/g
  concentration at 3 h: 337 ng/g
  concentration at 7 h: 87.9 ng/g
female, C57BL/6J, mouse, bone (long bones), iv, 3 mg/kg, bone, IV, 48 h, individual animals, N/A: Below detection level, read-out: Bone 6641 IV concentration
  concentration at 48 h: 3.84 ng/g
[2]
  concentration at 0.25 h: 19.5 ng/g
  concentration at 0.5 h: 54.2 ng/g
  concentration at 1 h: 168 ng/g
  concentration at 3 h: 337 ng/g
  concentration at 7 h: 141 ng/g
  concentration at 24 h: 7.05 ng/g
female, C57BL/6J, mouse, bone (long bones), po, 10 mg/kg, bone, PO, individual animals, N/A: Below detection level, read-out: Bone 6641 PO concentration
  concentration at 0.083 h: 3.07 ng/g
[3]
  concentration at 0.25 h: 5.39 ng/g
  concentration at 0.5 h: 27.1 ng/g
  concentration at 1 h: 114 ng/g
  concentration at 3 h: 140 ng/g
[4]
  concentration at 0.083 h: 26000 ng/g
  concentration at 0.25 h: 17200 ng/g
  concentration at 7 h: 474 ng/g
  concentration at 24 h: 28 ng/g
[5]
  concentration at 0.5 h: 8740 ng/g
  concentration at 3 h: 1570 ng/g
